Entries after “also recorded” stand apart in the source; their conditions may differ.
Legend:
Type in all cases: cell-based
[1] = tested on: human ISL1-βgeo BAC transgenic cells; assay: Expansion of hES cell-derived ISL1+ clones on mouse CMC feeders with BIO
Experimental: FIGS. 9A-9B show the expansion and characterization of hES cell-derived ISL1+ cardiac progenitors. FIG. 9A show ISL1+ cells increased by BIO treatment. Day 6 EBs of human ISL1-βgeo BAC transgenic cells were dissociated and cultured on mouse CMC feeders for two days before treated with and without BIO for another five days. Colonies were stained with anti-ISL1 antibody and counted for ISL1+ ones. […] Cells dissociated from day 7 EBs of human ISL1-cre DsRed cells were plated on Wnt3a-secreting feeders, cultured for five days and FACS isolated. Gene expression of DsRed+ cells was compared with DsRed− cells. Bars represent mean±s.d.; n=3.
Canonical Wnt pathways can promote the expansion of Isl1+ cardiac progenitors in the mouse^18-20. […] The inventors then isolated human ISL1-cre DsRed cells from day 7 EBs, which were dissociated and plated on a plastic surface, MEF, Wnt3a-secreting, or L cell feeders.

[2] = tested on: human Isl1+ primordial progenitors; assay: Differentiation of human Isl1+ primordial progenitors along vasculargenic lineages into Isl1+/CD31+ cells (FACS with anti-CD31); conditions: for increase of human Isl1+/CD31+ (GFP+/CD31+) cells: VEGF D4-D22 or ALK5 inhibitor D7-D22, compared to absence of the agent; for proportion of Isl1−/CD31+ cells: human ES cells
Source text: When Isl1+ is expressed in this ES cell line, the cells co-express GFP.

mouse Isl1+ cells = assay: Vasculargenic commitment of mouse ES cells into mouse Isl1+/CD31+ cells (FACS with anti-CD31); conditions: for proportion of Isl1−/CD31+ cells: mouse ES cells; for vasculargenic commitment / differentiation into Isl1+/CD31+ cells (in words): mouse cells

O=C1Nc2cc(Br)ccc2/C1=C1/Nc2ccccc2/C1=N\O [BIO, 6-bromoindirubin-3′-oxime]
ISL1+ cells (in words) ([1]; BIO for five days on mouse CMC feeders): increased | increase of human ISL1+ clones ([1]; compared to CMC control): over 30%

NC(=O)c1ccc(-c2nc(-c3ccc4c(c3)OCO4)c(-c3ccccn3)[nH]2)cc1 [SB431542, 4-[4-(1,3-Benzodioxol-5-yl)-5-(2-pyridinyl)-1H-imidazol-2-yl]-benzamide]
increase of human Isl1+/CD31+ (GFP+/CD31+) cells [2]: 4-5 fold | increase of human Isl1+/CD31+ (GFP+/CD31+) cells ([2]; listed as ALK5i): 4 to 5 fold | proportion of Isl1−/CD31+ cells [2]: increases the proportion of Isl1−/CD31+ cells | vasculargenic commitment / differentiation into human Isl1+/CD31+ cells (in words) [2]: increases the efficiency of differentiation | vasculargenic commitment / differentiation into human Isl1+/CD31+ cells (in words) ([2]; listed as ALK5i): promotes the vasculargenic commitment | overall human Isl1+ (GFP+) population ([2]; prolonged treatment): reduced the overall human Isl1+ (GFP+) population | proportion of Isl1−/CD31+ cells (mouse Isl1+ cells): increases the proportion of Isl1−/CD31+ cells | vasculargenic commitment / differentiation into Isl1+/CD31+ cells (in words) (mouse Isl1+ cells): increases the efficiency of differentiation | vasculargenic commitment / differentiation into Isl1+/CD31+ cells (in words) (mouse Isl1+ cells; listed as ALK5i): promotes the vasculargenic commitment

VEGF
vessel-like structures in vitro ([2]; VEGF treatment): produced vessel-like structures in vitro | proportion of Isl1−/CD31+ cells [2]: increases the proportion of Isl1−/CD31+ cells | vasculargenic commitment / differentiation into human Isl1+/CD31+ cells (in words) [2]: promotes the vasculargenic commitment | vessel-like structures (mouse Isl1+ cells; Isl1+ (YFP+) cells sorted at D8, cultured with VEGF until D20): demonstrated vessel-like structures | proportion of Isl1−/CD31+ cells (mouse Isl1+ cells): increases the proportion of Isl1−/CD31+ cells | increase of efficiency of differentiation into Isl1+/CD31+ cells (mouse Isl1+ cells; mouse Isl1+ cells, VEGF about 2 weeks from D4): at least 2 fold | vasculargenic commitment / differentiation into Isl1+/CD31+ cells (in words) (mouse Isl1+ cells): promotes the vasculargenic commitment; also recorded: increases efficiency of differentiation
